{
  "source": "patent US12127557B2",
  "key": {"Pythium ultimum": {"tested_on": "Pythium ultimum", "type": "cell-based", "details": "no enzyme, 2 days"}, "Fusarium graminearum": {"tested_on": "Fusarium graminearum", "type": "cell-based", "details": "no enzyme, 5 days"}},
  "note": "Where two headings read alike, the source gives them in different places.",
  "data": [
    {"substance": "mancozeb", "values": [
      {"measurement": "Reduction in P. ultimum growth (−) enzyme", "setting": "Pythium ultimum; mancozeb 0.5 mg/l", "result": 2, "unit": "% f"},
      {"measurement": "Reduction in P. ultimum growth (−) enzyme", "setting": "Pythium ultimum; mancozeb 2 mg/l", "result": 10, "unit": "% e"},
      {"measurement": "Reduction in P. ultimum growth (−) enzyme", "setting": "Pythium ultimum; mancozeb 5 mg/l", "result": 16, "unit": "% e"},
      {"measurement": "Reduction in P. ultimum growth (−) enzyme", "setting": "Pythium ultimum; mancozeb 10 mg/l", "result": 23, "unit": "% d"},
      {"measurement": "Reduction in F. graminearum growth (−) enzyme", "setting": "Fusarium graminearum; mancozeb 0.5 mg/l", "result": 6, "unit": "% cd"},
      {"measurement": "Reduction in F. graminearum growth (−) enzyme", "setting": "Fusarium graminearum; mancozeb 2 mg/l", "result": 1, "unit": "% d"},
      {"measurement": "Reduction in F. graminearum growth (−) enzyme", "setting": "Fusarium graminearum; mancozeb 5 mg/l", "result": 17, "unit": "% cd"},
      {"measurement": "Reduction in F. graminearum growth (−) enzyme", "setting": "Fusarium graminearum; mancozeb 10 mg/l", "result": 26, "unit": "% bcd"}
    ]}
  ]
}
